Experimental data reported in PubChem BioAssay AID1259407 (Chemical Carcinogenesis Research Information System (CCRIS), 2018).
Calls of active or inactive are those of the source. No rule for the calls is given here.

System: CCRIS mutagenicity, Ames/micronucleus/aberration tests
Test: CCRIS mutagenicity studies
[1] = Test System: AMES SALMONELLA TYPHIMURIUM, Strain/Indicator: TA98, Metabolic Activation: NONE, Method: PREINCUBATION
[2] = Test System: AMES SALMONELLA TYPHIMURIUM, Strain/Indicator: TA100, Metabolic Activation: NONE, Method: PREINCUBATION
[3] = Test System: AMES SALMONELLA TYPHIMURIUM, Strain/Indicator: TA1535, Metabolic Activation: NONE, Method: STANDARD PLATE
[4] = Test System: AMES SALMONELLA TYPHIMURIUM, Strain/Indicator: TA1535, Metabolic Activation: RAT, LIVER, S-9, AROCLOR 1254, Method: STANDARD PLATE
[5] = Test System: AMES SALMONELLA TYPHIMURIUM, Strain/Indicator: TA1537, Metabolic Activation: RAT, LIVER, S-9, AROCLOR 1254, Method: STANDARD PLATE
[6] = Test System: AMES SALMONELLA TYPHIMURIUM, Strain/Indicator: TA1538, Metabolic Activation: NONE, Method: STANDARD PLATE
[7] = Test System: AMES SALMONELLA TYPHIMURIUM, Strain/Indicator: TA1538, Metabolic Activation: RAT, LIVER, S-9, AROCLOR 1254, Method: STANDARD PLATE
[8] = Test System: AMES SALMONELLA TYPHIMURIUM, Strain/Indicator: TA98, Metabolic Activation: NONE, Method: STANDARD PLATE

## CCCCNCC
Test System: AMES SALMONELLA TYPHIMURIUM, Strain/Indicator: TA98, Metabolic Activation: HAMSTER, LIVER, S-9, AROCLOR 1254 (10%), Method: PREINCUBATION
  mutagenic call: inactive; negative
[1]
  mutagenic call: inactive; negative
Test System: AMES SALMONELLA TYPHIMURIUM, Strain/Indicator: TA98, Metabolic Activation: RAT, LIVER, S-9, AROCLOR 1254 (10%), Method: PREINCUBATION
  mutagenic call: inactive; negative
Test System: AMES SALMONELLA TYPHIMURIUM, Strain/Indicator: TA100, Metabolic Activation: HAMSTER, LIVER, S-9, AROCLOR 1254 (10%), Method: PREINCUBATION
  mutagenic call: inactive; negative
[2]
  mutagenic call: inactive; negative
Test System: AMES SALMONELLA TYPHIMURIUM, Strain/Indicator: TA100, Metabolic Activation: RAT, LIVER, S-9, AROCLOR 1254 (10%), Method: PREINCUBATION
  mutagenic call: inactive; negative
Test System: AMES SALMONELLA TYPHIMURIUM, Strain/Indicator: TA1535, Metabolic Activation: HAMSTER, LIVER, S-9, AROCLOR 1254 (10%), Method: PREINCUBATION
  mutagenic call: inactive; negative
Test System: AMES SALMONELLA TYPHIMURIUM, Strain/Indicator: TA1535, Metabolic Activation: NONE, Method: PREINCUBATION
  mutagenic call: inactive; negative
Test System: AMES SALMONELLA TYPHIMURIUM, Strain/Indicator: TA1535, Metabolic Activation: RAT, LIVER, S-9, AROCLOR 1254 (10%), Method: PREINCUBATION
  mutagenic call: inactive; negative
Test System: AMES SALMONELLA TYPHIMURIUM, Strain/Indicator: TA1537, Metabolic Activation: HAMSTER, LIVER, S-9, AROCLOR 1254 (10%), Method: PREINCUBATION
  mutagenic call: inactive; negative
Test System: AMES SALMONELLA TYPHIMURIUM, Strain/Indicator: TA1537, Metabolic Activation: NONE, Method: PREINCUBATION
  mutagenic call: inactive; negative
Test System: AMES SALMONELLA TYPHIMURIUM, Strain/Indicator: TA1537, Metabolic Activation: RAT, LIVER, S-9, AROCLOR 1254 (10%), Method: PREINCUBATION
  mutagenic call: inactive; negative

## C/[N+]([O-])=N/CO
Test System: AMES SALMONELLA TYPHIMURIUM, Strain/Indicator: G46, Metabolic Activation: NONE, Method: STANDARD PLATE
  mutagenic call: active; positive
Test System: AMES SALMONELLA TYPHIMURIUM, Strain/Indicator: TA100, Metabolic Activation: RAT, LIVER, S-9, KC500 OR PHENOBARBITAL, Method: LIQUID SUSPENSION
  mutagenic call: active; positive
Test System: AMES SALMONELLA TYPHIMURIUM, Strain/Indicator: TA1535, Metabolic Activation: RAT, LIVER, S-9, KC500 OR PHENOBARBITAL, Method: LIQUID SUSPENSION
  mutagenic call: active; positive
Test System: CHINESE HAMSTER V-79, Strain/Indicator: V-79/OUABAIN, Metabolic Activation: NONE, Method: STANDARD PLATE
  mutagenic call: active; positive

## Oc1cccc2c1[nH]c1ccccc12
Test System: CHINESE HAMSTER OVARY, Strain/Indicator: CHO-K1-BH4 (HGPRT)/6-THIOGUANINE, Metabolic Activation: RAT, LIVER, S-9, AROCLOR (4%)
  mutagenic call: active; positive

## Cc1cc(O)c2c(c1)C(=O)c1cc(O)cc(O)c1C2=O
Test System: AMES SALMONELLA TYPHIMURIUM, Strain/Indicator: TA97, Metabolic Activation: NONE, Method: STANDARD PLATE
  mutagenic call: inactive; negative
Test System: AMES SALMONELLA TYPHIMURIUM, Strain/Indicator: TA97, Metabolic Activation: RAT, LIVER, S-9, AROCLOR 1254, Method: STANDARD PLATE
  mutagenic call: active; positive
Test System: AMES SALMONELLA TYPHIMURIUM, Strain/Indicator: TA97A, Metabolic Activation: NONE, Method: STANDARD PLATE
  mutagenic call: inactive; negative
Test System: AMES SALMONELLA TYPHIMURIUM, Strain/Indicator: TA97A, Metabolic Activation: RAT, LIVER, S-9, AROCLOR 1254, Method: STANDARD PLATE
  mutagenic call: active; positive
Test System: AMES SALMONELLA TYPHIMURIUM, Strain/Indicator: TA98, Metabolic Activation: HAMSTER, LIVER, S-9, AROCLOR 1254 (30%), Method: PREINCUBATION
  mutagenic call: inactive; negative
[1]
  mutagenic call: inactive; negative
Test System: AMES SALMONELLA TYPHIMURIUM, Strain/Indicator: TA98, Metabolic Activation: RAT LIVER S-9, AROCLOR 1254 (30%), Method: PREINCUBATION
  mutagenic call: inactive; negative
Test System: AMES SALMONELLA TYPHIMURIUM, Strain/Indicator: TA100, Metabolic Activation: HAMSTER LIVER S-9, AROCLOR 1254 (10% OR 30%), Method: PREINCUBATION
  mutagenic call: active; positive
[2]
  mutagenic call: inactive; negative
Test System: AMES SALMONELLA TYPHIMURIUM, Strain/Indicator: TA100, Metabolic Activation: RAT LIVER S-9, AROCLOR 1254 (5% OR 30%), Method: PREINCUBATION
  mutagenic call: active; positive
Test System: AMES SALMONELLA TYPHIMURIUM, Strain/Indicator: TA102, Metabolic Activation: NONE, Method: STANDARD PLATE
  mutagenic call: inactive; negative
Test System: AMES SALMONELLA TYPHIMURIUM, Strain/Indicator: TA102, Metabolic Activation: S-9, Method: STANDARD PLATE
  mutagenic call: active; positive
[3]
  mutagenic call: inactive; negative
[4]
  mutagenic call: inactive; negative
[5]
  mutagenic call: active; positive
Test System: AMES SALMONELLA TYPHIMURIUM, Strain/Indicator: TA1537, Metabolic Activation: RAT, LIVER, S-9, PCB, Method: STANDARD PLATE
  mutagenic call: active; positive
Test System: AMES SALMONELLA TYPHIMURIUM, Strain/Indicator: TA1537, Metabolic Activation: RAT, LIVER, S-9, Method: PREINCUBATION
  mutagenic call: active; positive
[6]
  mutagenic call: inactive; negative
[7]
  mutagenic call: inactive; negative
Test System: AMES SALMONELLA TYPHIMURIUM, Strain/Indicator: TA2638, Metabolic Activation: S-9, Method: STANDARD PLATE
  mutagenic call: active; positive
Test System: CHINESE HAMSTER V-79, Strain/Indicator: V-79 (HGPRT)/6-THIOGUANINE, Metabolic Activation: NONE, Method: SUSPENSION/PLATE
  mutagenic call: inactive; negative
Test System: CHINESE HAMSTER V-79, Strain/Indicator: V-79 (HGPRT)/6-THIOGUANINE, Metabolic Activation: RAT, LIVER, S-9, AROCLOR 1254, Method: SUSPENSION/PLATE
  mutagenic call: inactive; negative
Test System: CHINESE HAMSTER V-79, Strain/Indicator: V-79/8-AZAGUANINE, Metabolic Activation: NONE, Method: STANDARD PLATE
  mutagenic call: active; positive
Test System: E. COLI, Strain/Indicator: WP2 (PKM101), Metabolic Activation: S-9, Method: STANDARD PLATE
  mutagenic call: inactive; negative
Test System: E. COLI, Strain/Indicator: WP2 UVRA (PKM101), Metabolic Activation: S-9, Method: STANDARD PLATE
  mutagenic call: inactive; negative
Test System: UDS RODENT HEPATOCYTES, Strain/Indicator: THY INCORP (NON-S-PHASE), Metabolic Activation: NONE, Method: AUTORADIOGRAPHY
  mutagenic call: active; positive

## Cc1cc(O)c2c(O)c3c(O)cccc3cc2c1
[8]
  mutagenic call: inactive; negative
Test System: AMES SALMONELLA TYPHIMURIUM, Strain/Indicator: TA98, Metabolic Activation: RAT, LIVER, S-9, AROCLOR 1254, Method: STANDARD PLATE
  mutagenic call: inactive; negative
Test System: AMES SALMONELLA TYPHIMURIUM, Strain/Indicator: TA100, Metabolic Activation: NONE, Method: STANDARD PLATE
  mutagenic call: inactive; negative
Test System: AMES SALMONELLA TYPHIMURIUM, Strain/Indicator: TA100, Metabolic Activation: RAT, LIVER, S-9, AROCLOR 1254, Method: STANDARD PLATE
  mutagenic call: inactive; negative
[3]
  mutagenic call: inactive; negative
[4]
  mutagenic call: inactive; negative
[5]
  mutagenic call: active; positive
[6]
  mutagenic call: inactive; negative
[7]
  mutagenic call: inactive; negative

## O=C(O)c1cc([N+](=O)[O-])cc([N+](=O)[O-])c1
[1]
  mutagenic call: active; positive
Test System: AMES SALMONELLA TYPHIMURIUM, Strain/Indicator: TA98, Metabolic Activation: RAT, LIVER, S-9, KANECHLOR 500, Method: PREINCUBATION
  mutagenic call: active; positive
[2]
  mutagenic call: active; positive
Test System: AMES SALMONELLA TYPHIMURIUM, Strain/Indicator: TA100, Metabolic Activation: RAT, LIVER, S-9, KANECHLOR 500, Method: PREINCUBATION
  mutagenic call: active; positive

## O=[N+]([O-])c1cc2c3c(ccc4cc([N+](=O)[O-])cc(c43)CC2)c1
Test System: AMES SALMONELLA TYPHIMURIUM, Strain/Indicator: TA98(1,8-DNP6), Metabolic Activation: NONE, Method: STANDARD PLATE
  mutagenic call: active; positive
Test System: AMES SALMONELLA TYPHIMURIUM, Strain/Indicator: TA98(NR), Metabolic Activation: NONE, Method: STANDARD PLATE
  mutagenic call: active; positive
[8]
  mutagenic call: active; positive
